What was measured:
[1] = Stability of 6555 with sulfur-containing and other stabilizers, 50 mM AAPH at 80° C. for 30 mins (Tables 7-9); type: physicochemical
Text: The effect of specified sulfur-containing compounds and other stabilizer compounds (including non-sulfur-containing stabilizer compounds) and mixtures of sulfur-containing compounds and non-sulfur-containing stabilizer compounds with the boronic acid compound 6555 (structure shown above) at various pH values.

[2] = target: recombinant human fibroblast activation protein (FAP) (Homo sapiens (Human), UniProt Q12884); experiment: In vitro assay fibroblast activation protein IC50 (Example 21); type: biochemical
Sequence of recombinant human fibroblast activation protein (FAP) (Q12884 whole entry): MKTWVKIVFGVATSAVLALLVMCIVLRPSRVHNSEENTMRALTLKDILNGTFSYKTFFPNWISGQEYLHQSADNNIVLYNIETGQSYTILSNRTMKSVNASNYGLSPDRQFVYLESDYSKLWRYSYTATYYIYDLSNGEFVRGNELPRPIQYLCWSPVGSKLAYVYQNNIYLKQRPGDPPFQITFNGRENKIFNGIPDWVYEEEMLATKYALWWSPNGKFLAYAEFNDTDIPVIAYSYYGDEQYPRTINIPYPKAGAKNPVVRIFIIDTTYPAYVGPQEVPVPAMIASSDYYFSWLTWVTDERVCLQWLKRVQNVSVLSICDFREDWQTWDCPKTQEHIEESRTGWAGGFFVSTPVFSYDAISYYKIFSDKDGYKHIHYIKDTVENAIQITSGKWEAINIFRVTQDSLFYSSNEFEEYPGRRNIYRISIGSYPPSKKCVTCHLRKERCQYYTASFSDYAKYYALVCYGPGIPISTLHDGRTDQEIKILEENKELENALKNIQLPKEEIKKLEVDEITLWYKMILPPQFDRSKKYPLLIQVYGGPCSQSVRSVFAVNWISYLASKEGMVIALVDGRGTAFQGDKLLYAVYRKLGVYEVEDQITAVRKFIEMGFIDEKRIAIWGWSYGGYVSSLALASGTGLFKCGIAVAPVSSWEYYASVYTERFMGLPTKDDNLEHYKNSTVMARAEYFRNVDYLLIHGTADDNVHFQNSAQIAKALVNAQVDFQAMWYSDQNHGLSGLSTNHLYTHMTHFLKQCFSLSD

6555 Remain (%) ([1]; ascorbate (2.5 mM) +, gentisate (1 mM) +, Sodium hydrosulfite 10.0 mM, pH 4.5, SID 90532, AAPH 80° C. 30 mins): 94.1% | 6555 Remain (%) ([1]; ascorbate (2.5 mM) +, gentisate (1 mM) +, Sodium hydrosulfite 25.0 mM, pH 4.3, SID 90539, AAPH 80° C. 30 mins): 94.1% | 6555 Remain (%) ([1]; ascorbate (2.5 mM) +, gentisate (1 mM) +, Sodium hydrosulfite 40.00 mM, pH 4.0, SID 90538, AAPH 80° C. 30 mins): 94.6% | 6555 Remain (%) ([1]; ascorbate (2.5 mM) +, gentisate (1 mM) +, Sodium sulfite 2.5 mM, pH 4.5, SID 90616, AAPH 80° C. 30 mins): 67.9% | 6555 Remain (%) ([1]; ascorbate (2.5 mM) +, gentisate (1 mM) +, Sodium sulfite 5.0 mM, pH 4.6, SID 90617, AAPH 80° C. 30 mins): 90.3% | 6555 Remain (%) ([1]; ascorbate (2.5 mM) +, gentisate (1 mM) +, Sodium sulfite 10.0 mM, pH 4.8, SID 90613, AAPH 80° C. 30 mins): 93.8% | 6555 Remain (%) ([1]; ascorbate (2.5 mM) +, gentisate (1 mM) +, Sodium sulfite 25.0 mM, pH 5.1, SID 90517, AAPH 80° C. 30 mins): 94.1% | 6555 Remain (%) ([1]; ascorbate (2.5 mM) +, gentisate (1 mM) +, Stabilizer (1 mM) NAM, pH 4.6, SID 90629, AAPH 80° C. 30 mins): 30.8% | 6555 Remain (%) ([1]; ascorbate (2.5 mM) +, gentisate (1 mM) +, Stabilizer (1 mM) Sodium hydrosulfite, pH 4.5, SID 90629, AAPH 80° C. 30 mins): 47.4% | 6555 Remain (%) ([1]; ascorbate (2.5 mM) +, gentisate (1 mM) +, Stabilizer (1 mM) Sodium metabisulfite, pH 4.5, SID 90628, AAPH 80° C. 30 mins): 71.1% | 6555 Remain (%) ([1]; ascorbate (2.5 mM) +, gentisate (1 mM) +, Stabilizer (2.5 mM) Acetone sodium bisulfite, pH 4.6, SID 90523, AAPH 80° C. 30 mins): 94.0% | 6555 Remain (%) ([1]; ascorbate (2.5 mM) +, gentisate (1 mM) +, Stabilizer (2.5 mM) Acetone sodium bisulfite, pH 4.6, SID 90621, second listing, AAPH 80° C. 30 mins): 73.1% | 6555 Remain (%) ([1]; ascorbate (2.5 mM) +, gentisate (1 mM) +, Stabilizer (2.5 mM) D-mannitol, pH 4.5, SID 90641, AAPH 80° C. 30 mins): 15.5% | 6555 Remain (%) ([1]; ascorbate (2.5 mM) +, gentisate (1 mM) +, Stabilizer (2.5 mM) MSM(dimethyl sulfone), pH 4.5, SID 90598, AAPH 80° C. 30 mins): 8.2% | 6555 Remain (%) ([1]; ascorbate (2.5 mM) +, gentisate (1 mM) +, Stabilizer (2.5 mM) N-Acetyl-L-phenylalanine, pH 4.0, SID 90610, AAPH 80° C. 30 mins): 20.1% | 6555 Remain (%) ([1]; ascorbate (2.5 mM) +, gentisate (1 mM) +, Stabilizer (2.5 mM) N-Acetyl-L-tyrosine, pH 4.0, SID 90589, AAPH 80° C. 30 mins): 13.6% | 6555 Remain (%) ([1]; ascorbate (2.5 mM) +, gentisate (1 mM) +, Stabilizer (2.5 mM) NAC, pH 4.1, SID 90582, AAPH 80° C. 30 mins): 31.4% | 6555 Remain (%) ([1]; ascorbate (2.5 mM) +, gentisate (1 mM) +, Stabilizer (2.5 mM) NAM, pH 4.0, SID 90543, AAPH 80° C. 30 mins): 90.8% | 6555 Remain (%) ([1]; ascorbate (2.5 mM) +, gentisate (1 mM) +, Stabilizer (2.5 mM) NAM, pH 4.5, SID 90623, second listing, AAPH 80° C. 30 mins): 53.3% | 6555 Remain (%) ([1]; ascorbate (2.5 mM) +, gentisate (1 mM) +, Stabilizer (2.5 mM) Potassium metabisulfite, pH 4.4, SID 90622, second listing, AAPH 80° C. 30 mins): 93.7% | 6555 Remain (%) ([1]; ascorbate (2.5 mM) +, gentisate (1 mM) +, Stabilizer (2.5 mM) Potassium metabisulfite, pH 4.5, SID 90526, AAPH 80° C. 30 mins): 94.1% | 6555 Remain (%) ([1]; ascorbate (2.5 mM) +, gentisate (1 mM) +, Stabilizer (2.5 mM) Sodium L-Glutamate monohydrate, pH 4.7, SID 90604, AAPH 80° C. 30 mins): 8.2% | 6555 Remain (%) ([1]; ascorbate (2.5 mM) +, gentisate (1 mM) +, Stabilizer (2.5 mM) Sodium formaldehydesulfoxylate dihydrate, pH 4.4, SID 90527, AAPH 80° C. 30 mins): 91.7% | 6555 Remain (%) ([1]; ascorbate (2.5 mM) +, gentisate (1 mM) +, Stabilizer (2.5 mM) Sodium formaldehydesulfoxylate dihydrate, pH 4.5, SID 90620, second listing, AAPH 80° C. 30 mins): 58.0% | 6555 Remain (%) ([1]; ascorbate (2.5 mM) +, gentisate (1 mM) +, Stabilizer (2.5 mM) Sodium hydrosulfite, pH 4.3, SID 90539, AAPH 80° C. 30 mins): 94.1% | 6555 Remain (%) ([1]; ascorbate (2.5 mM) +, gentisate (1 mM) +, Stabilizer (2.5 mM) Sodium hydrosulfite, pH 4.4, SID 90537, second listing, AAPH 80° C. 30 mins): 91.7% | 6555 Remain (%) ([1]; ascorbate (2.5 mM) +, gentisate (1 mM) +, Stabilizer (2.5 mM) Sodium metabisulfite, pH 4.4, SID 90515, AAPH 80° C. 30 mins): 93.8% | 6555 Remain (%) ([1]; ascorbate (2.5 mM) +, gentisate (1 mM) +, Stabilizer (2.5 mM) Sodium metabisulfite, pH 4.5, SID 90619, second listing, AAPH 80° C. 30 mins): 93.4% | 6555 Remain (%) ([1]; ascorbate (2.5 mM) +, gentisate (1 mM) +, Stabilizer (2.5 mM) Sodium sulfite, pH 4.5, SID 90616, second listing, AAPH 80° C. 30 mins): 67.9% | 6555 Remain (%) ([1]; ascorbate (2.5 mM) +, gentisate (1 mM) +, Stabilizer (2.5 mM) Thiourea, pH 4.5, SID 90607, AAPH 80° C. 30 mins): 84.1% | 6555 Remain (%) ([1]; ascorbate (2.5 mM) +, gentisate (1 mM) +, Stabilizer none, pH 5.1, SID 90525, AAPH 80° C. 30 mins): 16.7% | 6555 Remain (%) ([1]; ascorbate none, gentisate none, Stabilizer (2.5 mM) NAM, pH 4.0, SID 90640, AAPH 80° C. 30 mins): 85.9% | 6555 Remain (%) ([1]; ascorbate none, gentisate none, Stabilizer none, pH 4.6, SID 90646, AAPH 80° C. 30 mins): 55.8% | 6555 Remain (%) ([1]; mM: ascorbate 0, gentisate 0, NAM 5, metabisulfite 5, hydrosulfite 0, pH 4.3, SID 90664, 50 mM AAPH 80° C. 30 mins): 88.8% | 6555 Remain (%) ([1]; mM: ascorbate 2.5, gentisate 1, NAM 2.5, metabisulfite 2.5, hydrosulfite 0, pH 4.5, SID 90637, 50 mM AAPH 80° C. 30 mins): 94.8% | 6555 Remain (%) ([1]; mM: ascorbate 2.5, gentisate 1, NAM 10, metabisulfite 2.5, hydrosulfite 0, pH 4.0, SID 90638, 50 mM AAPH 80° C. 30 mins): 93.2% | 6555 Remain (%) ([1]; mM: ascorbate 2.5, gentisate 1, NAM 25, metabisulfite 2.5, hydrosulfite 0, pH 4.0, SID 90631, 50 mM AAPH 80° C. 30 mins): 92.2% | 6555 Remain (%) ([1]; mM: ascorbate 5, gentisate 2, NAM 0, metabisulfite 5, hydrosulfite 0, pH 4.5, SID 90643, 50 mM AAPH 80° C. 30 mins): 95.6% | 6555 Remain (%) ([1]; mM: ascorbate 5, gentisate 2, NAM 0, metabisulfite 5, hydrosulfite 5, pH 4.4, SID 90686, 50 mM AAPH 80° C. 30 mins): 95.3% | 6555 Remain (%) ([1]; mM: ascorbate 5, gentisate 2, NAM 5, metabisulfite 0, hydrosulfite 0, pH 4.5, SID 90642, 50 mM AAPH 80° C. 30 mins): 66.5% | 6555 Remain (%) ([1]; mM: ascorbate 5, gentisate 2, NAM 5, metabisulfite 0, hydrosulfite 5, pH 4.5, SID 90701, 50 mM AAPH 80° C. 30 mins): 95.7% | 6555 Remain (%) ([1]; mM: ascorbate 5, gentisate 2, NAM 5, metabisulfite 5, hydrosulfite 0, pH 4.5, SID 90639, 50 mM AAPH 80° C. 30 mins): 95.8% | 6555 Remain (%) ([1]; mM: first column (ascorbate) 2.5, gentisate 1, NAM 0, metabisulfite 2.5, hydrosulfite 0, pH 4.5, SID 90619, 50 mM AAPH 80° C. 30 mins): 93.4% | IC50 [2]: 3.8 nM
SMILES: C[C@@H](NC(=O)c1ccc(CNC(=O)CN2CCN(CC(=O)O)CCN(CC(=O)O)CCN(CC(=O)O)CC2)cc1)C(=O)N1CCC[C@H]1B(O)O [compound 6555, DOTA-aminomethyl-Bz-D-Ala-boroPro]

— US20240207292A1, “BORONIC ACID COMPOUNDS, COMPOSITIONS AND METHODS” (Trustees of Tufts College, priority 2021, published 2024)
